Tests used:
Assay in all cases: Viability/apoptosis flow cytometry assay, DLBCL cell lines with acquired resistance to doxorubicin and parental lines
Format in all cases: cell-based
[1] = system: Oci-Ly10 DoxoR; conditions: 120 hours
Protocol: (§1) The following exemplary anti-proliferative assay uses exemplary DLBCL cell lines with acquired resistance to doxorubicin (Table 7). The in vitro growth inhibitory activity of Compound described herein was evaluated using a 384-well flow cytometry assay. The activity of Compound 1 was also evaluated in cell lines with acquired resistance to doxorubicin (one of the curative agents in the DLBCL standard of care regimen R-CHOP [rituximab, cyclophosphamide, doxorubicin, vincristine, and prednisone]) (Table 7).
(§2) The cell lines in Table 7 were plated in 96-well flat bottom plates and assessed with increasing concentrations of compound ranging from 0.0015 to 10 μM or dimethyl sulfoxide (DMSO) control. The final concentration of DMSO was 0.1% (v/v). Following the addition of Compound 1 or DMSO and incubation for 120 hours, cell number and cell death were analyzed by flow cytometry (Attune®, Thermo Fisher) using Annexin V and the vital dye, 7-AAD. Phosphatidylserine translocates from the inner layer to the outer layer of the cell membrane early in apoptosis and Annexin V binds to the exposed phosphatidylserine found on the surface of an apoptotic cell. The dye 7-AAD is excluded by intact live cells and only stains cells that have died as a result of apoptosis or necrosis.
(§3) Flow cytometry data analysis was then performed using the Flow Jo_v10 software to determine the number of viable cells (Annexin V and 7-AAD double negative staining cells) and percentage of apoptotic cells (Annexin V positive cells) for each condition. The live cell count for every concentration was normalized to the DMSO control (considered as 100%) to calculate the percentage of viable cells remaining after treatment and graphed using GraphPad Prism 7.03. The IC50 (50% inhibitory concentration) and Emax (maximum efficacy eliminating tumor cells achieved) values were then calculated by performing nonlinear regression curve fitting using log(inhibitor) vs. normalized response—variable slope analysis on GraphPad Prism 7.03. Area under the curve (AUC) was calculated by performing area under curve analysis on GraphPad Prism 7.03. Similarly, for apoptosis analysis, the percentage of apoptosis combining both “early” (Annexin V positive and 7-AAD negative) and “late” apoptosis (Annexin V and 7-AAD positive) cell gates relative to DMSO was graphed using GraphPad Prism 7.03. The AUC, EC50 (concentration of Compound 1 that produces half-maximal apoptosis response) and Ymax (maximal percentage of apoptosis achieved) values from apoptosis curves were calculated by performing area under curve analysis and nonlinear regression curve fitting using log(agonist) vs. normalized response—Variable slope analysis on GraphPad Prism 7.03.
(§4) In Table 8, dose-response proliferation curves for the cell lines with acquired resistance to doxorubicin and non-linear curve-fit regression were used to determine IC50, AUC, and Emax for % viable cells (Emax for viability varies between 100 at low doses and 0 at high doses, which corresponds to inhibition of all viable cells), and dose-response apoptosis curves were used to determine the EC50, AUC, and Ymax for % apoptosis (Ymax for apoptosis varies from 0 at low doses and 100 at higher doses which corresponds to death of all cells). Tumor cells were exposed to serial dilutions (0.00015 to 10 μM) of Compound 1 or dimethyl sulfoxide (DMSO) control for 5 days. Viability and apoptosis for all cell lines was determined by Annexin V/7-aminoactinomycin D (7-AAD) flow cytometry.

[2] = system: Oci-Ly10 Parental; conditions: 120 hours
Protocol: as §1, §2, §3, §4

[3] = system: SUDHL4 DoxoR
Protocol: as §1, §2, §3, §4

[4] = system: SUDHL4 Parental
Protocol: as §1, §2, §3, §4

[5] = system: U2932 DoxoR; conditions: 120 hours
Protocol: as §1, §2, §3, §4

[6] = system: U2932 Parental; conditions: 120 hours
Protocol: as §1, §2, §3, §4

[7] = system: WSU-DLCL2 DoxoR
Protocol: as §1, §2, §3, §4

[8] = system: WSU-DLCL2 Parental
Protocol: as §1, §2, §3, §4

[9] = Homo sapiens, read-out: IC50 (% Viable Cells)
[10] = Homo sapiens, SU-DHL-4, 120 hours
[11] = Homo sapiens, WSUDLCL2, 120 hours
[12] = Homo sapiens, WSUDLCL2, 120 hours, read-out: IC50 (% Viable Cells)

**Q.** Which results are given for `O=C1CC[C@H](N2C(=O)c3cccc(NCc4ccc(CN5CC(N6CCOCC6)C5)cc4F)c3C2=O)C(=O)N1` [Compound 1, (S)-2-(2,6-dioxopiperidin-3-yl)-4-((2-fluoro-4-((3-morpholinoazetidin-1-yl)methyl)benzyl)amino)isoindoline-1,3-dione]?
**A.** AUC (% Viable Cells) [1]: 211.8; AUC (Apoptosis) [1]: 27; Emax (% Viable Cells) [1]: 25%; Ymax (Apoptosis) [1]: 19.48%; EC50 ([1]; Homo sapiens): 640 nM; IC50 [1, 9]: 90 nM; AUC (% Viable Cells) [2]: 285.5; AUC (Apoptosis) [2]: 13; Emax (% Viable Cells) [2]: 52%; Ymax (Apoptosis) [2]: 10.12%; EC50 ([2]; Homo sapiens): 810 nM; IC50 [2, 9]: 200 nM; AUC (% Viable Cells) ([3]; 120 hours): 182.4; AUC (Apoptosis) ([3]; 120 hours): 84; Emax (% Viable Cells) ([3]; 120 hours): 7.5%; Ymax (Apoptosis) ([3]; 120 hours): 63.5%; EC50 [3, 10]: 400 nM; IC50 ([3]; Homo sapiens, SU-DHL-4, 120 hours, read-out: IC50 (% Viable Cells)): 72 nM; AUC (% Viable Cells) ([4]; 120 hours): 335; AUC (Apoptosis) ([4]; 120 hours): 6; Emax (% Viable Cells) ([4]; 120 hours): 75%; Ymax (Apoptosis) ([4]; 120 hours): 3.7%; EC50 [4, 10]: 200 nM; AUC (% Viable Cells) [5]: 256; AUC (Apoptosis) [5]: 15.7; Emax (% Viable Cells) [5]: 27.7%; Ymax (Apoptosis) [5]: 16%; EC50 ([5]; Homo sapiens): 1120 nM; IC50 [5, 9]: 250 nM; AUC (% Viable Cells) [6]: 193; AUC (Apoptosis) [6]: 45.5; Emax (% Viable Cells) [6]: 28.4%; Ymax (Apoptosis) [6]: 30%; EC50 ([6]; Homo sapiens): 440 nM; IC50 [6, 9]: 30 nM; AUC (% Viable Cells) ([7]; 120 hours): 195.9; AUC (Apoptosis) ([7]; 120 hours): 74.4; Emax (% Viable Cells) ([7]; 120 hours): 8.4%; Ymax (Apoptosis) ([7]; 120 hours): 57%; EC50 [7, 11]: 400 nM; IC50 [7, 12]: 70 nM; AUC (% Viable Cells) ([8]; 120 hours): 166.7; AUC (Apoptosis) ([8]; 120 hours): 51; Emax (% Viable Cells) ([8]; 120 hours): 28%; Ymax (Apoptosis) ([8]; 120 hours): 29.5%; EC50 [8, 11]: 320 nM; IC50 [8, 12]: 10 nM

— patent US11390617B2, “Methods of treating non-Hodgkin lymphoma using 2-(2,6-dioxopiperidin-3-yl)-4-((2-fluoro-4-((3-morpholinoazetidin-1-yl)methyl)benzyl)amino)isoindoline-1,3-dione” (Celgene Corporation, priority 2019, dated 2022)
